Test results as given in patent US20250368648A1, “MULTI-CYCLIC IRAK AND FLT3 INHIBITING COMPOUNDS AND USES THEREOF” (CHILDREN'S HOSPITAL MEDICAL CENTER, priority 2022, published 2025).

Legend:
Conditions in all cases: no ATP
FLT3 Autoinh. = molecular target: T1, FLT3 Autoinh. (Homo sapiens, UniProt P36888); test: DiscoverX KINOMEscan competition binding, FLT3 Autoinh.
T1 construct: purchased DiscoverX (KINOMEscan); host or cells: E. coli (T7 phage) or HEK-293
T1 sequence (P36888 564-993 limits assumed): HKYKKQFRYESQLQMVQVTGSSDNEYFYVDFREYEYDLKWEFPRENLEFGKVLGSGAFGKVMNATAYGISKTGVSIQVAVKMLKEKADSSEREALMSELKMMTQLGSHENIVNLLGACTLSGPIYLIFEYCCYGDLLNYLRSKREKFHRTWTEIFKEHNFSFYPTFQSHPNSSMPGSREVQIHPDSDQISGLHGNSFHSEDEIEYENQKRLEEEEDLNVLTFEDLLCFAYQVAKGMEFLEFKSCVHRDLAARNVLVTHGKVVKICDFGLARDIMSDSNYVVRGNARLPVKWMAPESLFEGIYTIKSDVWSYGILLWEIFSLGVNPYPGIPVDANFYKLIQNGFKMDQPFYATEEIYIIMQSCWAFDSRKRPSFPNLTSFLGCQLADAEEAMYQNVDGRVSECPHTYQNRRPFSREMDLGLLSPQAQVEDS
Description: (§1) Kinase binding data were obtained for various exemplary compounds prepared according to Examples 2-15 using the DiscoverX KINOMEscan® active site-directed competition binding site-directed assay protocol described below. […] As a result, the data report thermodynamic interaction affinities (Kd values), rather than IC50 values that are dependent on ATP concentrations. The assay uses a DNA-tagged version of the protein kinase, and an immobilized ligand bound to a solid support. Compounds that directly or indirectly prevent kinase binding to the immobilized ligand reduce the amount of kinase captured on the solid support, which is detected using an ultra-sensitive qPCR method. Affinity constants reported from the assay have been reported to be independent of the immobilized ligand used that is coupled to the solid support (See supplemental information in Fabian, M. A. et. al., (2005) Nat. […] Wodicka, L. […] Biol. 17, 1241-1249.) Kinase-tagged T7 phage strains were prepared in an E. coli host derived from the BL21 strain. E. coli were grown to log-phase and infected with T7 phage and incubated with shaking at 32° C. until lysis. […] Kds were determined using an 11-point 3-fold compound dilution series with three DMSO control points. […] The kinase concentration in the eluates was measured by qPCR. Binding constants (Kds) were calculated with a standard dose-response curve using the Hill equation. […]

FLT3 = molecular target: T2, FLT3 (Homo sapiens, UniProt P36888); test: DiscoverX KINOMEscan competition binding, FLT3; parameters: purchased RBC (Reaction Biology) HotSpot assay
T2 sequence (P36888 27-993): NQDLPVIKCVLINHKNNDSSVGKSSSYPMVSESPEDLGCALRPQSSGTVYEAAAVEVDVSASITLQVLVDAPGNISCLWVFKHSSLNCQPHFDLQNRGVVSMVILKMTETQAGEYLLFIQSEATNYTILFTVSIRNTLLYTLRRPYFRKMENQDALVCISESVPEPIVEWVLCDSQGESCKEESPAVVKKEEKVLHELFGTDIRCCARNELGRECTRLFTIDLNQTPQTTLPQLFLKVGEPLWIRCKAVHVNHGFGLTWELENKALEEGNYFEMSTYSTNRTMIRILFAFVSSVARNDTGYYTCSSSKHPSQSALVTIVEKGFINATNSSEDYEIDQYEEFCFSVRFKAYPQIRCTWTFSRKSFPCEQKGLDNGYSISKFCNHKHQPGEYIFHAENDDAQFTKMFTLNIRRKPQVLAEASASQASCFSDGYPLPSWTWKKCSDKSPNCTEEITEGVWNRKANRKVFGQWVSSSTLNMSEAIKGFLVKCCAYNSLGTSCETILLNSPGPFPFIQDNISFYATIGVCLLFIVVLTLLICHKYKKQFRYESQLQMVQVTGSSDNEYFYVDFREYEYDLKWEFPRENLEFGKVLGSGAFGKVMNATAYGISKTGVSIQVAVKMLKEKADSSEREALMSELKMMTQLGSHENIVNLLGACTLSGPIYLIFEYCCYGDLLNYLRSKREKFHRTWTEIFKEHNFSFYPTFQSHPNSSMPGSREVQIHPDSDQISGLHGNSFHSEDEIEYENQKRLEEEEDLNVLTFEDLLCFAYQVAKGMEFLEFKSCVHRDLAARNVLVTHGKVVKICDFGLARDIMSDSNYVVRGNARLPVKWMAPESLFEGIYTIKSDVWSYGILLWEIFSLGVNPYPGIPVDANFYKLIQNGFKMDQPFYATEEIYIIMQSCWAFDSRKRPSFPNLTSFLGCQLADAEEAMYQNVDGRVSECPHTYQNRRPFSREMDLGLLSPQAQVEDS
Description: as §1

IRAK4 = molecular target: T3, IRAK4 (Homo sapiens, UniProt Q9NWZ3); test: DiscoverX KINOMEscan competition binding, IRAK4; parameters: purchased RBC (Reaction Biology) HotSpot assay
T3 sequence (Q9NWZ3 1-460): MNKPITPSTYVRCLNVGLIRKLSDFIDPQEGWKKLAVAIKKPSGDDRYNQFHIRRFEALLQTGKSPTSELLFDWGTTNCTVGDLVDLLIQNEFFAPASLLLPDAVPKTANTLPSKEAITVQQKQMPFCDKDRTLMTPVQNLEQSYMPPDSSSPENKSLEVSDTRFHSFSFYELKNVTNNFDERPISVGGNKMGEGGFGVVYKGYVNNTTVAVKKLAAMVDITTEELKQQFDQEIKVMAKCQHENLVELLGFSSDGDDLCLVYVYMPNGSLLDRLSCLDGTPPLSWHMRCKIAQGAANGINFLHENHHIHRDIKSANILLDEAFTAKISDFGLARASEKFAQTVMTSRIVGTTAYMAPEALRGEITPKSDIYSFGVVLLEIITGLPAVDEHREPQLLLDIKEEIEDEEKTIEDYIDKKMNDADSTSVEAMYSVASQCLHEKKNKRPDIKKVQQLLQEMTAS
Description: as §1

COc1cc2ncc(-c3nc(N[C@H]4CNCC[C@@H]4F)c(F)cc3F)n2nc1C1CCC1 [Compound 15a, 6-(6-cyclobutyl-7-methoxyimidazo[1,2-b]pyridazin-3-yl)-3,5-difluoro-N-((3S,4S)-4-fluoropiperidin-3-yl)pyridin-2-amine]
Kd (FLT3 Autoinh.): 5.8 nM | Kd (FLT3): < 0.17 nM | Kd (IRAK4): 0.32 nM
